# From patent US4942256A, “Novel intermediates in the manufacture of novel thromboxane A2 antagonists” (National Research Development Corporation, priority 1988, dated 1990)
# Key:
# [1] = tested on: U-46619 induced platelet aggregation; assay: Ex vivo inhibition of U-46619 induced platelet aggregation, intravenous (rat); format: in vivo; settings: for ED50: Platelet, iv, 0.5 min, i.v. bolus, blood sampled 30 sec. later
# Method: (§1) II. Ex vivo--(rat) Inhibition of U-46619 induced platelet aggregation
# Rats were anesthetized with ether and the jugular vein exposed. Compound dissolved in 0.1M Na Carbonate was injected as a bolus into the jugular vein. Blood (5 ml, heparanized) was sampled 30 sec. later from the abdominal aorta. PRP was prepared by quick centrifugation (Eppendorf, model 5415 at 12,000 rpm for 5 sec.) PPP was prepared by centrifugation for 2 min. PRP was diluted 1:1 with PPP from, similarly treated animals. Aggregation was monitored for 5 min. and inhibition was determined as previously described.
# [2] = tested on: collagen induced platelet aggregation; assay: Inhibition of collagen induced platelet aggregation in dog PRP; format: cell-based; settings: Canis lupus familiaris
# Method: c. Inhibition of collagen induced platelet aggregation in dogs by SC-44161 and SC-46984
# Blood was collected into citrated vacutainers from the jugular veins of conscious dogs and centrifuged at 200×g for 7 min. PRP was separated and an aliquot (450 μl ) incubated 1 min. in the aggregometer (as described above). Collagen (50 μl, Helena Reagent, bovine tendon) was added and aggregation monitored for 5 min. Percent inhibition and IC50 's were determined as previously described.
# [3] = tested on: U-46619 induced platelet aggregation; assay: Ex vivo inhibition of U-46619 induced platelet aggregation, intragastric (rat); format: in vivo; settings: for ED50: read-out: I.G. ED50, ex vivo inhibition of U-46619 induced aggregation; for I.V./I.G. ratio: from the I.V. and the I.G. studies, rat ED50
# Method: as §1
# Compounds dissolved in Na Carbonate were administered to conscious rats with an I.G. tube. Fifteen minutes post administration (time previously determined to show maximum effect), rats were anesthetized with ether and blood was sampled from the abdominal aorta. PRP was prepared as described in II a.
# [4] = tested on: U-46619-induced platelet aggregation; assay: Inhibition of U-46619-induced platelet aggregation (rat), in vitro in rat platelet rich plasma; format: cell-based; settings: for IC50: 1 min preincubation at 37° C
# Method: a. Inhibition of U-46619-induced platelet aggregation (rat)
# Platelet rich plasma (PRP) was prepared from heparanized whole blood (5 units/ml) drawn from the abdominal aorta of ether anesthetized rats. PRP was prepared by centrifugation (Sorvall RC2B, DuPont, Wilmington, Del.) of the whole blood at 150×g for 10 min. Platelet poor plasma (PPP) was prepared by centrifugation at 1200×g for 20 min. Aliquots of PRP and PPP were used to standardize the aggregometer (Payton, Buffalo, N.Y., model 300B) with the recorder (Riken Denshi 2 channel recorder, Payton, model SP H5P) for measurement of […] light transmittance, respectively.
# Platelet aggregation was measured as an increase in light transmittance. PRP (390 μl aliquot+5 μl compound vehicle) was preincubated for 1 min. at 37° C., with stirring at 900 rpm in the aggregometer. The vehicle control response was obtained by adding U-46619 (Cayman Chemical, Ann Arbor, Mich., 1-2 units/cuvette/10 μl ) to the aliquot of PRP. Aggregation was monitored until maximum aggregation was achieved (approximately 3 min. following the addition of U-46619). Amount of aggregation was measured by grids on the strip chart.
# Compounds were dissolved in either ethanol (ETOH) or Na2 CO3 (0.1M) and preincubated at the desired concentration in PRP for 1 min. at 37° C. with stirring. At the end of the preincubation, U-46619 was added and aggregation measured. Inhibition of aggregation by compound was calculated as percent inhibition of the control aggregation response to U-46619. Dose response curves were generated and IC50 's calculated by linear regression.
# [5] = tested on: human washed platelets stimulated with U-46619; assay: Inhibition of U-46619 stimulated aggregation of human washed platelets by SC-46985; format: cell-based; settings: Platelet
# Method: (§2) Sixty ml of blood were drawn into 1/10 volume of CCD (100 mM Na Citrate and 136 mM glucose, pH 6.5 with HCl) and PRP prepared as described above. PRP was placed on ice for 15 min. One half of the volume of CCD was added and recentrifuged. The platelet pellet was gently resuspended in 1/2 the original volume of PRP in a 0° C. modified Tangen-Hepes-BSA buffer (145 mM NaCl, 5 mM KCl, 0.05 mM CaCl2, 0.1 mM MgCl2, 11 mM glucose, 15 mM Hepes, 1 mg/ml bovine serum albumin, pH adjusted to 7.4 with NaOH). The resuspended platelets were incubated undisturbed at 37° C. for 30 min. After incubation a platelet count was determined and adjusted to 3×10^8 cells/ml with the Tangen-Hepes-BSA buffer.
# (§3) 425 μl of the washed human platelet suspension was incubated in the aggregometer in the presence of 16 mM CaCl2 (50 μl ) and SC-46985 for 5 and 10 min. […] (In a study similar to (a) above, aliquots of human washed platelets were incubated with various concentrations of SC-46985 and U-46619 to determine dose-related inhibition of aggregation).
# human washed platelets = assay: Analysis of partial agonism with SC-46985 (human washed platelets); format: cell-based
# Method: b. Analysis of partial agonism with SC-46985 (human washed platelets)
# as §2, §3
# [6] = Platelet, po, 0.25 h, rat, intragastric, 15 min post administration
# [7] = Rattus norvegicus, Platelet, vehicle Na2CO3 (0.1M), (a) values are estimates based on all-or-none responses
# [8] = Rattus norvegicus, Platelet, vehicle ETOH
SMILES,ED50 [1],IC50 [2],"ED50 [3, 6]",I.V./I.G. ratio [3],"IC50 [4, 7]","IC50 [4, 8]","times more potent than SC-44161 (in vitro) ([4]; rat PRP, U-46619)",other results
"CC(=NNC(=S)Nc1ccccc1)C1C2CCC(C2)C1CC=CCCCC(=O)O (racemic) [SC-44161, (±)7-[3α[[(Phenylamino)thioxomethyl]hydrazono]ethyl]1α,4α-bicyclo[2.2.1]hept-2β-yl]-5Z-heptenoic acid]",0.031 mg/kg,11400 nM,1.21 mg/kg,39,70 nM,–,–,"more potent when in aqueous solution than when dissolved in ethanol ([4]; rat PRP, Na carbonate vs ETOH): 5-10 fold"
"CC(=NNC(=S)Nc1ccccc1)[C@@H]1[C@H]2CC[C@H](C2)[C@H]1C/C=C\CCCC(=O)O [SC-46984, 7-[3α-[1-[[(Phenylamino)thioxomethyl]hydrazono]ethyl]-1R, 1α,4α-bicyclo[2.2.1]hept-2β-yl]5Z-heptenoic acid]",0.0087 mg/kg,2090 nM,0.44 mg/kg,51,0.7 nM,50 nM,approximately 100 times,"times more potent than SC-44161 (I.V.) ([1]; i.v., ex vivo): approximately 3.5 times; times more potent than SC-44161 (I.G.) ([3]; rat, intragastric, ex vivo): approximately 2.8 times; more potent in aqueous solution than in ethanol ([4]; rat PRP, Na carbonate vs ETOH): 10-50 times"
CC(=NNC(=S)Nc1ccccc1)[C@H]1[C@@H]2CC[C@@H](C2)[C@@H]1C/C=C\CCCC(=O)O [SC-46985],0.045 mg/kg,–,–,–,~2500 nM,970 nM,–,"IC50 [5]: 5600 nM; partial agonist activity (human washed platelets; 5 and 10 min. incubation): lack of partial agonist activity; evidence of shape change or aggregation (partial agonism) (human washed platelets; after 5 and 10 min. incubation): no evidence of shape change or aggregation; times less potent than SC-44161 (I.V.) ([1]; i.v., ex vivo): approximately 1.5 times"
CC(=NNC(=S)Nc1ccccc1)C1C2CCC(C2)C1CC=CCCCC(=O)O (stereo not shown) [SC-46986],–,–,–,–,–,–,–,IC50 ([4]; vehicle ETOH): 690 nM
"CC(=NNC(=S)Nc1ccccc1)[C@@H]1[C@H]2CC[C@H](C2)[C@H]1C/C=C/CCCC(=O)O [SC-47721, 7-[3α-[1-[[(Phenylamino)thioxomethyl]hydrazono]ethyl]-1R, 1α,4α-bicyclo[2.2.1]hept-2β-yl]-5E-heptenoic acid]",–,–,–,–,~7.5 nM,–,10-50 times,"inhibition at 1 mg/kg ([3]; Platelet, po, 0.25 h, rat, intragastric, 1 mg/kg, 15 min post administration): 37.5%; potency compared with SC-46984 (in vitro) ([4]; rat PRP, U-46619): less potent than SC 46984"
